Experimental data published in the supplement of paper PMC11061612.

Legend:
Experiment in all cases: Bliss excess, mean over the matrix (fraction); higher = more synergy
[1] = system: 639-V (Bladder Carcinoma)
How it was run: (§1)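 Cell lines in DMEM/F12 or RPMI with 10% FBS were plated in 1536-well plates, held 24 hours at 37°C, 5% CO2, then given two-drug dose matrices for 72 hours (DMSO typically 0.2%). Viability was read by CellTiter-Glo 2.0 luminescence and scaled as inhibition from 0 (vehicle wells) to 1 (blank wells). Combination Emax is the second-highest inhibition in the matrix; Bliss excess is observed combination effect minus expected EA + EB − EA·EB, EA and EB being single-agent effects.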

[2] = system: 8305C (Thyroid Gland Carcinoma)
How it was run: as §1

[3] = system: CAL-51 (Breast Carcinoma)
How it was run: as §1

[4] = system: CTB-1 (B-Cell Non-Hodgkin's Lymphoma)
How it was run: as §1

[5] = system: EN (Endometrial Carcinoma)
How it was run: as §1

[6] = system: HDLM-2 (Hodgkin's Lymphoma)
How it was run: as §1

[7] = system: LU-139 (Small Cell Lung Carcinoma)
How it was run: as §1

[8] = system: LoVo (Colorectal Carcinoma)
How it was run: as §1

[9] = system: MDA-MB-468 (Breast Carcinoma)
How it was run: as §1

[10] = system: MHH-PREB-1 (B-Cell Non-Hodgkin's Lymphoma)
How it was run: as §1

[11] = system: Mewo (Melanoma)
How it was run: as §1

[12] = system: NCI-H2461 (Mesothelioma)
How it was run: as §1

[13] = system: NCI-H28 (Mesothelioma)
How it was run: as §1

[14] = system: NCI-H747 (Colorectal Carcinoma)
How it was run: as §1

[15] = system: OVCAR-8 (Ovarian Carcinoma)
How it was run: as §1

[16] = system: PCI-30 (Head and Neck Carcinoma)
How it was run: as §1

[17] = system: RPMI-6666 (Non-Cancerous)
How it was run: as §1

[18] = system: SU-DHL-6 (B-Cell Non-Hodgkin's Lymphoma)
How it was run: as §1

[19] = system: SUP-T1 (T-Lymphoblastic Leukemia)
How it was run: as §1

[20] = system: UMC-11 (Other Solid Carcinomas)
How it was run: as §1

SMILES	Bliss excess [1]	Bliss excess [2]	Bliss excess [3]	Bliss excess [4]	Bliss excess [5]	Bliss excess [6]	Bliss excess [7]	Bliss excess [8]	Bliss excess [9]	Bliss excess [10]	Bliss excess [11]	Bliss excess [12]	Bliss excess [13]	Bliss excess [14]	Bliss excess [15]	Bliss excess [16]	Bliss excess [17]	Bliss excess [18]	Bliss excess [19]	Bliss excess [20]
COc1cccc(OCCCN)c1-c1cc(Nc2cnc(C#N)cn2)n[nH]1 [Prexasertib] + CN(C)CCCOc1ccc(-c2ccc3ncc4c(c3c2)n(C2CCOCC2)c(=O)n4C)cn1 [AZD0156] (first compound max 1 µM, 7x7, partner max 1 µM)	0.0592	-0.0926	0.0233	0.0109	-0.0459	-0.0727	-0.0244	0.0116	-0.057	-0.0167	0.0034	-0.0647	-0.0307	-0.0095	0.0133	-0.0637	0.0064	0.0382	-0.0707	-0.0236
COc1cccc(OCCCN)c1-c1cc(Nc2cnc(C#N)cn2)n[nH]1 [Prexasertib] + C[C@@H]1COCCN1C2=NC(=NC(=C2)C3(CC3)[S@](=N)(=O)C)C4=C5C=CNC5=NC=C4 [AZD6738] (first compound max 1 µM, 7x7, partner max 10 µM)	0.0838	-0.0226	-0.0078	-0.091	-0.0416	-0.0669	0.0339	-0.0296	-0.0106	-0.0643	-0.0403	-0.0344	-0.0062	-0.0294	-0.0151	0.003	-0.0467	-0.0158	-0.0374	-0.0213
COc1cccc(OCCCN)c1-c1cc(Nc2cnc(C#N)cn2)n[nH]1 [Prexasertib] + Cc1cc2ncnn2cc1Nc1ncc2c(n1)n(C1CCOCC1)c(=O)n2C [AZD7648] (first compound max 1 µM, 7x7, partner max 10 µM)	-0.0051	-0.0726	0.0069	-0.0352	-0.0753	-0.0934	-0.015	-0.0687	0.0262	-0.0322	-0.0079	-0.0428	-0.0397	0.0085	0.0125	-0.0227	-0.0261	0.0159	-0.0536	-0.0692
COc1cccc(OCCCN)c1-c1cc(Nc2cnc(C#N)cn2)n[nH]1 [Prexasertib] + O=C(c1cc(Cc2n[nH]c(=O)c3ccccc23)ccc1F)N1CCN(C(=O)C2CC2)CC1 [Olaparib] (first compound max 1 µM, 7x7, partner max 10 µM)	0.101	-0.0732	-0.0744	-0.0667	-0.0336	-0.046	-0.0401	-0.129	-0.106	-0.125	-0.0708	-0.0891	-0.0613	0.0024	-0.0475	-0.166	-0.0352	0.0089	-0.0966	0.0014
COc1cc2c(cc1OCCCCCOc1cc3c(cc1OC)C(=O)N1C=C(C)C[C@H]1C=N3)N=C[C@@H]1CC(C)=CN1C2=O [SG3199] + O=C(c1cc(Cc2n[nH]c(=O)c3ccccc23)ccc1F)N1CCN(C(=O)C2CC2)CC1 [Olaparib] (first compound max 0.001 µM, 7x7, partner max 10 µM)	-0.0289	-0.0854	-0.0299	-0.043	-0.0456	-0.0444	-0.0196	-0.0455	-0.0971	-0.0025	-0.0489	-0.0652	-0.0556	-0.0269	-0.0295	-0.0328	0.0028	0.0075	-0.0478	0.0084
CCc1c2c(nc3ccc(O)cc13)-c1cc3c(c(=O)n1C2)COC(=O)[C@]3(O)CC [SN-38] + CN(C)CCCOc1ccc(-c2ccc3ncc4c(c3c2)n(C2CCOCC2)c(=O)n4C)cn1 [AZD0156] (first compound max 0.3 µM, 7x7, partner max 1 µM)	0.068	0.0088	0.0611	-0.0393	-0.0346	-0.0809	-0.118	0.0135	0.0309	0.0408	-0.0722	-0.0236	-0.0839	0.0019	0.0058	-0.0044	-0.0196	-0.0694	-0.0214	0.0224
CC(=O)Nc1cccc(-n2c(=O)n(C3CC3)c(=O)c3c(Nc4ccc(I)cc4F)n(C)c(=O)c(C)c32)c1 [Trametinib] + Cc1nc(-c2cn3c(n2)-c2ccc(-c4cnn(C(C)(C)C(N)=O)c4)cc2OCC3)n(C(C)C)n1 [Taselisib] (first compound max 1 µM, 7x7, partner max 10 µM)	0.068	0.0656	0.0242	0.0136	0.0161	0.0406	-0.0203	-0.0092	-0.0919	0.0277	0.0975	0.0312	0.0616	-0.0203	0.121	0.0485	0.0351	0.0238	0.0363	0.0075
CC1(C)CCC(CN2CCN(c3ccc(C(=O)NS(=O)(=O)c4ccc(NCC5CCOCC5)c([N+](=O)[O-])c4)c(Oc4cnc5[nH]ccc5c4)c3)CC2)=C(c2ccc(Cl)cc2)C1 [Venetoclax] + C1CN(CCC1(C(=O)N[C@@H](CCO)C2=CC=C(C=C2)Cl)N)C3=NC=NC4=C3C=CN4 [Capivasertib] (first compound max 1 µM, 7x7, partner max 3 µM)	-0.108	0.0038	-0.0879	-0.045	-0.0656	-0.0166	-0.0467	-0.0419	-0.0435	-0.0398	-0.0093	-0.0184	-0.0848	-0.0537	-0.0504	-0.0216	0.0217	0.0537	-0.0641	-0.038
CC1(C)CCC(CN2CCN(c3ccc(C(=O)NS(=O)(=O)c4ccc(NCC5CCOCC5)c([N+](=O)[O-])c4)c(Oc4cnc5[nH]ccc5c4)c3)CC2)=C(c2ccc(Cl)cc2)C1 [Venetoclax] + C=CCn1c(=O)c2cnc(Nc3ccc(N4CCN(C)CC4)cc3)nc2n1-c1cccc(C(C)(C)O)n1 [AZD1775] (first compound max 1 µM, partner max 1 µM)	-0.0322	-0.0431	-0.0507	-0.0812	0.0619	0.0749	0.0207	-0.0625	-0.0308	-0.0328	-0.0079	0.0234	-0.048	-0.0656	-0.0326	0.0974	0.0917	0.0009	0.0425	-0.0679
CC1(C)CCC(CN2CCN(c3ccc(C(=O)NS(=O)(=O)c4ccc(NCC5CCOCC5)c([N+](=O)[O-])c4)c(Oc4cnc5[nH]ccc5c4)c3)CC2)=C(c2ccc(Cl)cc2)C1 [Venetoclax] + CCN(CCO)CCCOc1ccc2c(Nc3cc(CC(=O)Nc4cccc(F)c4)[nH]n3)ncnc2c1 [AZD2811] (first compound max 1 µM, 7x7, partner max 1 µM)	-0.0262	-0.0038	0.046	-0.118	-0.0017	0.106	0.0596	-0.0359	-0.086	-0.0052	-0.0193	-0.0587	-0.0346	-0.0429	0.0431	-0.0231	0.189	0.0684	-0.0012	-0.0398
CC1(C)CCC(CN2CCN(c3ccc(C(=O)NS(=O)(=O)c4ccc(NCC5CCOCC5)c([N+](=O)[O-])c4)c(Oc4cnc5[nH]ccc5c4)c3)CC2)=C(c2ccc(Cl)cc2)C1 [Venetoclax] + CN(C)CCCOc1ccc(-c2ccc3ncc4c(c3c2)n(C2CCOCC2)c(=O)n4C)cn1 [AZD0156] (first compound max 1 µM, 7x7, partner max 1 µM)	0.02	-0.0626	0.0064	-0.024	-0.0832	-0.0015	0.0014	-0.0251	-0.0294	0.0029	-0.0483	-0.0535	-0.0547	-0.0497	-0.0089	-0.0665	-0.0231	0.036	-0.0294	-0.0004
CC1(C)CCC(CN2CCN(c3ccc(C(=O)NS(=O)(=O)c4ccc(NCC5CCOCC5)c([N+](=O)[O-])c4)c(Oc4cnc5[nH]ccc5c4)c3)CC2)=C(c2ccc(Cl)cc2)C1 [Venetoclax] + COc1cc(Nc2ncc3c(n2)-c2ccc(Cl)cc2C(c2c(F)cccc2OC)=NC3)ccc1C(=O)O [Alisertib] (first compound max 1 µM, 7x7, partner max 10 µM)	0.0173	-0.0592	0.0319	-0.0467	-0.0554	0.0993	0.149	-0.0799	0.0409	-0.03	-0.0163	-0.0208	-0.0704	0.0071	0.0079	-0.0352	0.0702	0.121	0.0423	0.192
CC1(C)CCC(CN2CCN(c3ccc(C(=O)NS(=O)(=O)c4ccc(NCC5CCOCC5)c([N+](=O)[O-])c4)c(Oc4cnc5[nH]ccc5c4)c3)CC2)=C(c2ccc(Cl)cc2)C1 [Venetoclax] + C[C@@H]1COCCN1C2=NC(=NC(=C2)C3(CC3)[S@](=N)(=O)C)C4=C5C=CNC5=NC=C4 [AZD6738] (first compound max 1 µM, 7x7, partner max 10 µM)	-0.0323	-0.0471	0.005	-0.0184	-0.0605	0.0068	-0.0111	-0.0637	-0.028	0.0046	-0.0285	-0.026	-0.059	-0.0621	-0.0444	-0.0076	0.0224	0.0561	-0.0098	-0.0331
CC1(C)CCC(CN2CCN(c3ccc(C(=O)NS(=O)(=O)c4ccc(NCC5CCOCC5)c([N+](=O)[O-])c4)c(Oc4cnc5[nH]ccc5c4)c3)CC2)=C(c2ccc(Cl)cc2)C1 [Venetoclax] + C[C@@H](Nc1cc(F)cc(F)c1)c1cc(C(=O)N(C)C)cc2c(=O)cc(N3CCOCC3)oc12 [AZD8186] (first compound max 1 µM, 7x7, partner max 3 µM)	0.0371	-0.0423	-0.0394	-0.0261	-0.0384	0.122	0.0371	0.029	-0.0688	-0.0297	0.0083	0.0092	-0.0502	0.0197	-0.0162	-0.0292	0.0617	0.0547	-0.0402	-0.0263
